Columns and labels:
Experiment in all cases: relative viability (nuclei count vs DMSO), 5 days (fraction); higher = more cells survive
BEN = tested on: BEN
How it was run: (§1)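 For relative viability, nuclei counts in treated wells were divided by those in vehicle wells. Lung cancer cell lines had been pin-tool dosed in 1536-well plates the day after seeding and cultured for 5 days, then fixed and stained in one step (final 0.05% Triton X-100, 1% formaldehyde, 1 ug/ml Hoechst) and imaged at 4×. Doses were one drug alone or a fixed anchor-drug dose plus five library-drug doses (not always all listed) in √10 steps, and values are duplicate-plate medians.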

CAL-12T = tested on: CAL-12T
How it was run: as §1

NCI-H2228 = tested on: NCI-H2228
How it was run: as §1

SK-LU-1 = tested on: SK-LU-1
How it was run: as §1

201T = tested on: 201T
How it was run: as §1

LCLC-97TM1 = tested on: LCLC-97TM1
How it was run: as §1

NCI-H2405 = tested on: NCI-H2405
How it was run: as §1

NCI-H727 = tested on: NCI-H727
How it was run: as §1

NCI-H1793 = tested on: NCI-H1793
How it was run: as §1

NCI-H1437 = tested on: NCI-H1437
How it was run: as §1

NCI-H3122 = tested on: NCI-H3122
How it was run: as §1

LXF-289 = tested on: LXF-289
How it was run: as §1

NCI-H647 = tested on: NCI-H647
How it was run: as §1

RERF-LC-KJ = tested on: RERF-LC-KJ
How it was run: as §1

NCI-H2087 = tested on: NCI-H2087
How it was run: as §1

NCI-H1792 = tested on: NCI-H1792
How it was run: as §1

NCI-H1944 = tested on: NCI-H1944
How it was run: as §1

NCI-H1650 = tested on: NCI-H1650
How it was run: as §1

LCLC-103H = tested on: LCLC-103H
How it was run: as §1

NCI-H1395 = tested on: NCI-H1395
How it was run: as §1

HCC-827 = tested on: HCC-827
How it was run: as §1

NCI-H322M = tested on: NCI-H322M
How it was run: as §1

Cc1sc2c(c1C)C(c1ccc(Cl)cc1)=N[C@@H](CC(=O)OC(C)(C)C)c1nnc(C)n1-2 [JQ1] + O=C(c1cc(Cc2n[nH]c(=O)c3ccccc23)ccc1F)N1CCN(C(=O)C2CC2)CC1 [Olaparib] (partner 8 µM)
relative viability (BEN; first compound 0.04 µM): 1.02
relative viability (BEN; first compound 0.1265 µM): 0.76
relative viability (BEN; first compound 0.4 µM): 0.671
relative viability (BEN; first compound 1.265 µM): 0.346
relative viability (BEN; first compound 4 µM): 0.243
relative viability (CAL-12T; first compound 0.04 µM): 0.715
relative viability (CAL-12T; first compound 0.1265 µM): 0.823
relative viability (CAL-12T; first compound 0.4 µM): 0.595
relative viability (CAL-12T; first compound 1.265 µM): 0.34
relative viability (CAL-12T; first compound 4 µM): 0.272
relative viability (NCI-H2228; first compound 0.04 µM): 0.628
relative viability (NCI-H2228; first compound 0.1265 µM): 0.434
relative viability (NCI-H2228; first compound 0.4 µM): 0.356
relative viability (NCI-H2228; first compound 1.265 µM): 0.123
relative viability (NCI-H2228; first compound 4 µM): 0.181
relative viability (SK-LU-1; first compound 0.04 µM): 0.452
relative viability (SK-LU-1; first compound 0.1265 µM): 0.358
relative viability (SK-LU-1; first compound 0.4 µM): 0.374
relative viability (SK-LU-1; first compound 1.265 µM): 0.153
relative viability (SK-LU-1; first compound 4 µM): 0.124
relative viability (201T; first compound 0.04 µM): 0.871
relative viability (201T; first compound 0.4 µM): 0.613
relative viability (201T; first compound 1.265 µM): 0.498
relative viability (201T; first compound 4 µM): 0.347
relative viability (LCLC-97TM1; first compound 0.04 µM): 0.354
relative viability (LCLC-97TM1; first compound 0.1265 µM): 0.297
relative viability (LCLC-97TM1; first compound 0.4 µM): 0.297
relative viability (LCLC-97TM1; first compound 1.265 µM): 0.149
relative viability (LCLC-97TM1; first compound 4 µM): 0.108
relative viability (NCI-H2405; first compound 0.04 µM): 0.867
relative viability (NCI-H2405; first compound 0.4 µM): 0.851
relative viability (NCI-H2405; first compound 1.265 µM): 0.693
relative viability (NCI-H2405; first compound 4 µM): 0.433
relative viability (NCI-H727; first compound 0.04 µM): 0.668
relative viability (NCI-H727; first compound 0.1265 µM): 0.759
relative viability (NCI-H727; first compound 0.4 µM): 0.599
relative viability (NCI-H727; first compound 1.265 µM): 0.555
relative viability (NCI-H727; first compound 4 µM): 0.497
relative viability (NCI-H1793; first compound 0.04 µM): 0.882
relative viability (NCI-H1793; first compound 0.1265 µM): 0.735
relative viability (NCI-H1793; first compound 0.4 µM): 0.666
relative viability (NCI-H1793; first compound 1.265 µM): 0.526
relative viability (NCI-H1793; first compound 4 µM): 0.52
relative viability (NCI-H1437; first compound 0.04 µM): 0.595
relative viability (NCI-H1437; first compound 0.1265 µM): 0.572
relative viability (NCI-H1437; first compound 0.4 µM): 0.519
relative viability (NCI-H1437; first compound 1.265 µM): 0.29
relative viability (NCI-H1437; first compound 4 µM): 0.279
relative viability (NCI-H3122; first compound 0.04 µM): 0.558
relative viability (NCI-H3122; first compound 0.1265 µM): 0.586
relative viability (NCI-H3122; first compound 0.4 µM): 0.494
relative viability (NCI-H3122; first compound 1.265 µM): 0.485
relative viability (NCI-H3122; first compound 4 µM): 0.276
relative viability (LXF-289; first compound 0.04 µM): 0.99
relative viability (LXF-289; first compound 0.1265 µM): 1.06
relative viability (LXF-289; first compound 0.4 µM): 0.744
relative viability (LXF-289; first compound 1.265 µM): 0.47
relative viability (LXF-289; first compound 4 µM): 0.258
relative viability (NCI-H647; first compound 0.04 µM): 0.384
relative viability (NCI-H647; first compound 0.1265 µM): 0.185
relative viability (NCI-H647; first compound 0.4 µM): 0.128
relative viability (NCI-H647; first compound 1.265 µM): 0.0378
relative viability (NCI-H647; first compound 4 µM): 0.036
relative viability (RERF-LC-KJ; first compound 0.04 µM): 0.904
relative viability (RERF-LC-KJ; first compound 0.1265 µM): 0.808
relative viability (RERF-LC-KJ; first compound 0.4 µM): 0.669
relative viability (RERF-LC-KJ; first compound 1.265 µM): 0.42
relative viability (RERF-LC-KJ; first compound 4 µM): 0.338
relative viability (NCI-H2087; first compound 0.04 µM): 0.503
relative viability (NCI-H2087; first compound 0.1265 µM): 0.509
relative viability (NCI-H2087; first compound 0.4 µM): 0.646
relative viability (NCI-H2087; first compound 1.265 µM): 0.381
relative viability (NCI-H2087; first compound 4 µM): 0.297
relative viability (NCI-H1792; first compound 0.04 µM): 0.378
relative viability (NCI-H1792; first compound 0.1265 µM): 0.266
relative viability (NCI-H1792; first compound 0.4 µM): 0.392
relative viability (NCI-H1792; first compound 1.265 µM): 0.139
relative viability (NCI-H1792; first compound 4 µM): 0.0406
relative viability (NCI-H1944; first compound 0.04 µM): 0.405
relative viability (NCI-H1944; first compound 0.1265 µM): 0.391
relative viability (NCI-H1944; first compound 0.4 µM): 0.314
relative viability (NCI-H1944; first compound 1.265 µM): 0.232
relative viability (NCI-H1944; first compound 4 µM): 0.235
relative viability (NCI-H1650; first compound 0.04 µM): 0.725
relative viability (NCI-H1650; first compound 0.1265 µM): 0.669
relative viability (NCI-H1650; first compound 0.4 µM): 0.476
relative viability (NCI-H1650; first compound 1.265 µM): 0.21
relative viability (NCI-H1650; first compound 4 µM): 0.149
relative viability (LCLC-103H; first compound 0.04 µM): 0.789
relative viability (LCLC-103H; first compound 0.1265 µM): 0.714
relative viability (LCLC-103H; first compound 0.4 µM): 0.605
relative viability (LCLC-103H; first compound 1.265 µM): 0.528
relative viability (LCLC-103H; first compound 4 µM): 0.432
relative viability (NCI-H1395; first compound 0.04 µM): 0.489
relative viability (NCI-H1395; first compound 0.1265 µM): 0.452
relative viability (NCI-H1395; first compound 0.4 µM): 0.449
relative viability (NCI-H1395; first compound 1.265 µM): 0.378
relative viability (NCI-H1395; first compound 4 µM): 0.356
relative viability (HCC-827; first compound 0.04 µM): 0.622
relative viability (HCC-827; first compound 0.1265 µM): 0.477
relative viability (HCC-827; first compound 1.265 µM): 0.596
relative viability (HCC-827; first compound 4 µM): 0.363
relative viability (NCI-H322M; first compound 0.04 µM): 0.597
relative viability (NCI-H322M; first compound 0.1265 µM): 0.933
relative viability (NCI-H322M; first compound 0.4 µM): 0.654
relative viability (NCI-H322M; first compound 1.265 µM): 0.536
relative viability (NCI-H322M; first compound 4 µM): 0.461

Source: the supplement of paper PMC10307832
